Patent publication US6376510B1, “Neuromuscular relaxants” (Newlaxant LLC, priority 1997, dated 2002)
Read-outs that look alike come from different tables or passages of the source.

Columns and labels:
[1] = tested on: anesthetized rats (evoked responses of anterior tibial muscle); assay: In vivo neuromuscular block and cardiovascular side effects, anesthetized rat (Example 8, Table 3); details: for RI (recovery index): spontaneous recovery, 25-75% neuromuscular response; for Onset: time to 80-85% neuromuscular block
How it was run: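 Pentobarbital-anesthetized (i.p.), ventilated adult male rats given saline-dissolved agents i.v.; anterior tibial EMG responses to supramaximal single or train-of-four sciatic/peroneal stimuli, plus 0.1 or 1 Hz stimulation. Doses for 50%, 80%, 90% block derived. Onset: minutes to 80-85% block; RI: 25-75% spontaneous recovery; vagal block, heart rate and blood pressure changes (%) at 80-85% blocking dose.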

[2] = tested on: anesthetized cats (evoked responses of anterior tibial muscle); assay: animal or person; details: for RI (recovery index): spontaneous recovery, 25-75% neuromuscular response; for Onset: time to 80-85% neuromuscular block
How it was run: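 Adult cats anesthetized i.p. with 70 mg/kg alpha chloralose plus 0.5 g/kg ethylurethane; agents in saline given i.v. Anterior tibial muscle responses to supramaximal single or train-of-four stimuli of sciatic or peroneal nerve recorded electromyographically and mechanomyographically, alongside blood pressure and heart rate.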

[3] = tested on: anesthetized juvenile pigs; assay: animal or person; assay type: in vivo; details: pig; for ED50: intravenous dose causing 50% neuromuscular block; for RI (recovery index): spontaneous recovery, 25-75% neuromuscular response; for Onset: time to 80-85% neuromuscular block
How it was run: (§1)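 Electromyographic and mechanomyographic responses quantified. Monkeys sedated with intramuscular ketamine, then general anesthesia with intravenous pentobarbital and propofol; juvenile pigs induced with inhaled halothane.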

anesthetized monkeys = assay: In vivo neuromuscular block and cardiovascular side effects, monkey (Example 8, Table 6); details: for ED50: intravenous dose causing 50% neuromuscular block; for RI (recovery index): spontaneous recovery, 25-75% neuromuscular response; for Onset: time to 80-85% neuromuscular block
How it was run: as §1

rabbits = assay: In vivo neuromuscular block and cardiovascular side effects, rabbit (Example 8, Table 7); details: for ED50: intravenous dose causing 50% neuromuscular block; for RI (recovery index): spontaneous recovery, 25-75% neuromuscular response; for Onset: time to 80-85% neuromuscular block
dogs = assay: animal or person; assay type: in vivo; details: dog; for ED50: intravenous dose causing 50% neuromuscular block; for RI (recovery index): spontaneous recovery, 25-75% neuromuscular response; for Onset: time to 80-85% neuromuscular block
[4] = rat, at 80-85% neuromuscular blocking dose
[5] = cat, at 80-85% neuromuscular blocking dose
[6] = at 80-85% neuromuscular blocking dose
[7] = Oryctolagus cuniculus, read-out: ED50
[8] = Canis lupus familiaris, read-out: ED50

Compound | ED50 ([1]; Rattus norvegicus, iv) [mg/kg] | VB (vagal block) [1, 4] [%] | ΔBP (change in arterial blood pressure) [1, 4] [%] | ΔH (change in heart rate) [1, 4] [%] | RI (recovery index) ([1]; rat) [min] | Onset ([1]; rat) [min] | ED50 ([2]; Felis catus, iv) [mg/kg] | VB (vagal block) [2, 5] [%] | ΔBP (change in arterial blood pressure) [2, 5] [%] | ΔH (change in heart rate) [2, 5] [%] | RI (recovery index) ([2]; cat) [min] | Onset ([2]; cat) [min] | RI (recovery index) [3] [min] | Onset [3] [min] | RI (recovery index) (anesthetized monkeys) [min] | Onset (anesthetized monkeys) [min] | RI (recovery index) (rabbits) [min] | Onset (rabbits) [min] | RI (recovery index) (dogs) [min] | Onset (dogs) [min] | also measured
COc1cc(C[N+]2(C)[C@@H]3CC[C@H]2C[C@@H](OC(=O)C2CCCC(C(=O)O[C@H]4C[C@H]5CC[C@@H](C4)[N+]5(C)Cc4ccc(OC(C)=O)c(OC)c4)C2)C3)ccc1OC(C)=O.[Br-].[Br-] (stereo partly drawn) [bis[N-(4-acetoxy-3-methoxybenzyl)tropanium-3α-yl]cyclohexane-1,3-dicarboxylate dibromide] | 0.27 | 30 | 0 | 0 | 0.45 | 0.55 | 0.325 | 33 | −5 | 0 | 0.5 | 0.9 | 0.75 | 0.6 | 0.5 | 0.9 | 0.65 | 0.65 | 0.5 | 0.75 | ED50 ([3]; Sus scrofa, read-out: ED50): 0.183 mg/kg; VB (vagal block) [3, 6]: 65%; ΔBP (change in arterial blood pressure) [3, 6]: 0%; ΔH (change in heart rate) [3, 6]: 0%; ED50 (anesthetized monkeys; Primates, read-out: ED50): 0.1 mg/kg; ΔBP (change in arterial blood pressure) (anesthetized monkeys; [6]): 0%; ΔH (change in heart rate) (anesthetized monkeys; [6]): 0%; ED50 (rabbits; [7]): 0.165 mg/kg; ΔBP (change in arterial blood pressure) (rabbits; [6]): 0%; ΔH (change in heart rate) (rabbits; [6]): 0%; ED50 (dogs; [8]): 0.28 mg/kg; ΔBP (change in arterial blood pressure) (dogs; [6]): −25%; ΔH (change in heart rate) (dogs; [6]): 38%
CC(=O)Oc1ccc(C[N+]2(C)[C@@H]3CC[C@H]2C[C@@H](OC(=O)C2CCCC(C(=O)O[C@H]4C[C@H]5CC[C@@H](C4)[N+]5(C)Cc4ccc(OC(C)=O)c(OC(C)=O)c4)C2)C3)cc1OC(C)=O.[Br-].[Br-] (stereo partly drawn) [bis[N-(3,4-diacetoxybenzyl)tropanium-3α-yl]cyclohexane-1,3-dicarboxylate dibromide] | 0.24 | 28 | 0 | 0 | 0.5 | 0.65 | 0.11 | 34 | −25 | −12 | 0.5 | 0.8 | 0.85 | 0.8 | 0.65 | 0.95 | 0.7 | 0.9 | 0.55 | 0.75 | ED50 ([3]; Sus scrofa, read-out: ED50): 0.225 mg/kg; VB (vagal block) [3, 6]: 54%; ΔBP (change in arterial blood pressure) [3, 6]: 0%; ΔH (change in heart rate) [3, 6]: 0%; ED50 (anesthetized monkeys; Primates, read-out: ED50): 0.075 mg/kg; ΔBP (change in arterial blood pressure) (anesthetized monkeys; [6]): 0%; ΔH (change in heart rate) (anesthetized monkeys; [6]): 0%; ED50 (rabbits; [7]): 0.1 mg/kg; ΔBP (change in arterial blood pressure) (rabbits; [6]): 0%; ΔH (change in heart rate) (rabbits; [6]): 0%; ED50 (dogs; [8]): 0.128 mg/kg; ΔBP (change in arterial blood pressure) (dogs; [6]): −5%; ΔH (change in heart rate) (dogs; [6]): 30%
CC(=O)Oc1ccc(C[N+]2(C)C3CCCC2CC(OC(=O)C2CCC2C(=O)OC2CC4CCCC(C2)[N+]4(C)Cc2ccc(OC(C)=O)c(OC(C)=O)c2)C3)cc1OC(C)=O.[Br-].[Br-] (centres unmarked) [bis[N-(3,4-diacetoxybenzyl)granataninium-3-yl]cyclobutane-1,2-dicarboxylate dibromide] |  |  |  |  | 0.4 | 0.5 |  |  |  |  | 0.5 | 0.6 | 1 | 0.8 | 0.4 | 0.7 | 0.6 | 0.6 | 0.7 | 0.75 | VB (vagal block) ([1]; rat, in vivo): 2%; ΔBP (change in arterial blood pressure) ([1]; rat, in vivo): 0%; ΔH (change in heart rate) ([1]; rat, in vivo): 0%; ED50 ([1]; rat, intravenous dose causing 50% neuromuscular block): 0.133 mg/kg; ED50 ([2]; cat, intravenous dose causing 50% neuromuscular block): 0.4 mg/kg; ΔBP (change in arterial blood pressure) ([2]; in vivo): 0%; ΔH (change in heart rate) ([2]; in vivo): 0%; VB (vagal block) ([3]; in vivo): 15%; ΔBP (change in arterial blood pressure) ([3]; in vivo): 0%; ΔH (change in heart rate) ([3]; in vivo): 0%; ED50 [3]: 0.1 mg/kg; ΔBP (change in arterial blood pressure) (anesthetized monkeys; in vivo): 0%; ΔH (change in heart rate) (anesthetized monkeys; in vivo): 0%; ED50 (anesthetized monkeys): 0.086 mg/kg; ΔBP (change in arterial blood pressure) (rabbits; in vivo): 0%; ΔH (change in heart rate) (rabbits; in vivo): 0%; ED50 (rabbits): 0.115 mg/kg; ΔBP (change in arterial blood pressure) (dogs; in vivo): −5%; ΔH (change in heart rate) (dogs; in vivo): 27%; ED50 (dogs): 0.15 mg/kg
COc1cc(C[N+]2(C)[C@@H]3CC[C@H]2C[C@@H](OC(=O)C2CCC2C(=O)O[C@H]2C[C@H]4CC[C@@H](C2)[N+]4(C)Cc2ccc(OC(C)=O)c(OC)c2)C3)ccc1OC(C)=O.[Br-].[Br-] (stereo partly drawn) [bis[N-(4-acetoxy-3-methoxybenzyl)tropanium-3α-yl]cyclobutane-1,2-dicarboxylate dibromide] | 0.35 | 20 | 0 | 0 | 0.5 | 0.6 | 0.16 | 20 | 0 | 0 | 0.5 | 0.9 | 0.87 | 0.5 | 0.5 | 0.75 | 0.55 | 0.6 | 0.7 | 0.85 | ED50 ([3]; Sus scrofa, read-out: ED50): 0.268 mg/kg; VB (vagal block) [3, 6]: 46%; ΔBP (change in arterial blood pressure) [3, 6]: 0%; ΔH (change in heart rate) [3, 6]: 0%; ED50 (anesthetized monkeys; Primates, read-out: ED50): 0.092 mg/kg; ΔBP (change in arterial blood pressure) (anesthetized monkeys; [6]): 0%; ΔH (change in heart rate) (anesthetized monkeys; [6]): 0%; ED50 (rabbits; [7]): 0.075 mg/kg; ΔBP (change in arterial blood pressure) (rabbits; [6]): 0%; ΔH (change in heart rate) (rabbits; [6]): 0%; ED50 (dogs; [8]): 0.145 mg/kg; ΔBP (change in arterial blood pressure) (dogs; [6]): −15%; ΔH (change in heart rate) (dogs; [6]): 45%
